These results are taken from patent US20110060037A1, “USE OF NPY Y5 RECEPTOR ANTAGONISTS FOR THE PREVENTION OF PSYCHO-STIMULANT AND OPIOID ABUSE” (priority 2008, published 2011).

For test [1], the system named is Y5-KO and WT mice. Nature of the test: Acute self-administration of cocaine in Y5-KO and WT mice. The test is classed as in vivo. To be noted: inverted U-shaped curve, FIG. 4.
For test [2], the system named is NMRI mice. The test can be described thus: Acute self-administration: cocaine reinforcement. The test is classed as in vivo. The following applies: vehicle p.o. pre-treated NMRI mice; inverted U-shaped curve.

Turning to `COC(=O)[C@H]1[C@@H](OC(=O)c2ccccc2)C[C@@H]2CC[C@H]1N2C` [cocaine], the “cocaine dose at which self-administration reaches maximum” value in test [1] and in test [2] was 0.03 mg/kg/infusion throughout.
